“And” between values parts separate entries of the source, which are not always exact repeats. Equal values may be shown once. Read-outs that look alike come from different tables or passages of the source.
Assay: Single oral dose pharmacokinetic study of eliglustat tartrate in mild or moderate hepatic impairment and matched healthy subjects (Example 1)
Assay type: in vivo, human
Settings: for AUC(0-inf) / AUC(0-t) / Cmax / Vd/F / Tmax: human, 100 mg
Protocol: A multi-center, open-label, single oral dose study of eliglustat tartrate administered to mild or moderate HI and normal hepatic function (healthy) matched (by body weight and cytochrome P450 [CYP] 2D6 phenotype) subjects was carried out to study the effect of mild and moderate hepatic impairment (HI) on the pharmacokinetics (PK) of eliglustat.
Approximately 8 subjects were planned to be enrolled into each HI group (mild or moderate HI) and 8 subjects with normal hepatic function matched to impaired subjects by weight and CYP2D6 phenotype. At least 6 CYP2D6 extensive metabolizers (EMs) were to be enrolled into each impairment group, with the remaining 2 subjects enrolled according to the following preference: at least 20 subjects were to be screened for each impairment group and if identified, up to 2 CYP2D6 poor metabolizers (PMs) were enrolled. If less than 2 PMs were identified, up to 2 CYP2D6 intermediate metabolizers (IMs) were to be enrolled for a total of 8 subjects per group. If less than 2 PMs or IMs were identified, up to 2 additional EMs were to be enrolled for a total of 8 subjects per group. If 2 PMs were identified prior to screening 20 subjects, screening may have been discontinued. If an eligible PM subject was identified after satisfying the above requirements and enrolling 8 subjects for an impairment group, this subject may still have been enrolled for that impairment group.
CYP2D6 EMs and IMs were to receive a single 100-mg dose of eliglustat tartrate, while CYP2D6 PMs were to receive a single 50-mg dose of eliglustat tartrate.
For HI subjects: Male (body weight between 50.0 and 125.0 kg, inclusive) or female subjects (body weight between 40.0 and 110.0 kg, inclusive) between 18 and 79 years, inclusive, with a body mass index between 18.0 and 37 kg/m^2, inclusive; having stable chronic liver disease assessed by medical history, physical examination, and laboratory values; with moderate HI (defined as Child-Pugh score of 7 to 9, inclusive) or mild HI (defined as Child-Pugh score of 5 to 6, inclusive). For healthy subjects: Male or female subjects, between 18 and 79 years, inclusive; body weight within 15% of the body weight of matched subjects with HI, and body mass index between 18.0 and 37 kg/m^2, inclusive; healthy subjects were also matched to HI groups by CYP2D6 phenotype predicted from genotype.
A single 100-mg capsule of eliglustat tartrate (equivalent to 84 mg of eliglustat) was administered to CYP2D6 EM or IM subjects with mild or moderate HI and matching healthy subjects.
Pharmacokinetics: The following PK parameters were calculated for eliglustat plasma concentrations using noncompartmental methods: Maximum plasma concentration observed (Cmax), area under the plasma concentration versus time curve calculated using the trapezoidal method from time zero to the time corresponding to the last quantifiable concentration tlast (AUClast), time to reach Cmax(tmax), area under the plasma concentration versus time curve extrapolated to infinity (AUC), terminal half-life associated with the terminal slope λz (t1/2z), time corresponding to the last concentration above the limit of quantification (tlast), apparent total body clearance of a drug from the plasma (CL/F), and apparent volume of distribution during the terminal (λz) phase (Vz/F).
Blood samples were collected at the following timepoints to assess plasma concentrations of eliglustat: predose and 0.5, 1, 1.5, 2, 2.5, 3, 4, 6, 8, 10, 12, 24, 36, and 48 hours postdose.
Eliglustat concentrations in plasma were determined using a validated liquid chromatography-tandem mass spectrometry method with a lower limit of quantification of 0.2 ng/mL.
Eliglustat PK parameters were summarized using descriptive statistics for each population group and for each CYP2D6 phenotype. […]

[1] = CYP2D6 EM, healthy, N=7, single 100 mg eliglustat tartrate oral, plasma
[2] = CYP2D6 EM, mild HI, N=6, single 100 mg eliglustat tartrate oral, plasma
[3] = CYP2D6 EM, moderate HI, N=7, single 100 mg eliglustat tartrate oral, plasma
[4] = CYP2D6 IM, healthy, N=1, single 100 mg eliglustat tartrate oral, plasma
[5] = CYP2D6 IM, mild HI, N=2, single 100 mg eliglustat tartrate oral, plasma
[6] = CYP2D6 IM, moderate HI, N=1, single 100 mg eliglustat tartrate oral, plasma
[7] = Mild HI vs Healthy, CYP2D6 EM subjects, single 100 mg eliglustat tartrate
[8] = Moderate HI vs Healthy, CYP2D6 EM subjects, single 100 mg eliglustat tartrate

SMILES: CCCCCCCC(=O)N[C@H](CN1CCCC1)[C@H](O)c1ccc2c(c1)OCCO2 [eliglustat, N-((1R,2R)-1-(2,3-dihydrobenzo[b][1,4]dioxin-6-yl)-1-hydroxy-3-(pyrrolidin-1-yl)propan-2-yl)octanamide]
- CL/F, geometric mean [1]: (1420) [40.1] L/h
- CL/F, mean ± SD [1]: 1570 ± 628 L/h
- t1/2z, geometric mean [1]: (7.03) [12.5] h
- t1/2z, mean ± SD [1]: 7.08 h and 7.08 ± 0.881 h
- tlast, median [1]: 24.00 h
- CL/F, geometric mean [2]: (1230) [72.8]^ L/h
- CL/F, mean ± SD [2]: 1980 ± 1440 L/h
- t1/2z, geometric mean [2]: (7.13) [20.1] h
- t1/2z, mean ± SD [2]: 7.25 ± 1.46 h
- tlast, median [2]: 30.00 h
- CL/F, geometric mean [3]: (275) [70.9] L/h
- CL/F, mean ± SD [3]: 416 ± 295 L/h
- t1/2z, geometric mean [3]: (10.3) [21.4]^ h
- t1/2z, mean ± SD [3]: 10.5 h and 10.5 ± 2.25 h
- tlast, median [3]: 48.00 h
- CL/F [4]: 146 L/h
- t1/2z [4]: 8.48 h
- tlast [4]: 48.00 h
- CL/F, mean [5]: 306 L/h
- t1/2z, mean [5]: 9.34 h
- tlast [5]: 48.00 h
- CL/F [6]: 406 L/h
- t1/2z [6]: 5.87 h
- tlast [6]: 24.00 h
- AUC geometric mean ratio, point estimate [7]: 1.15
- AUClast geometric mean ratio, point estimate [7]: 1.18
- CL/F geometric mean ratio, point estimate [7]: 0.87
- Cmax geometric mean ratio, point estimate [7]: 1.22
- Vz/F geometric mean ratio, point estimate [7]: 0.88
- AUC geometric mean ratio, point estimate [8]: 5.16
- AUClast geometric mean ratio, point estimate [8]: 5.35
- CL/F geometric mean ratio, point estimate [8]: 0.19
- Cmax geometric mean ratio, point estimate [8]: 2.81
- Vz/F geometric mean ratio, point estimate [8]: 0.28
- t1/2z geometric mean ratio, point estimate [8]: 1.47
- AUC(0-inf) (both sexes, plasma, oral, CYP2D6 IM, healthy, N=1, single 100 mg eliglustat tartrate oral, plasma, read-out: AUC (extrapolated to infinity)): 578 ng·h/mL
- AUC(0-inf) (both sexes, plasma, oral, CYP2D6 IM, mild HI, N=2, single 100 mg eliglustat tartrate oral, plasma, read-out: AUC (extrapolated to infinity), mean): 346 ng·h/mL
- AUC(0-t) (both sexes, plasma, oral, CYP2D6 IM, mild HI, N=2, single 100 mg eliglustat tartrate oral, plasma, read-out: AUClast, mean): 334 ng·h/mL
- Cmax (both sexes, plasma, oral, CYP2D6 IM, mild HI, N=2, single 100 mg eliglustat tartrate oral, plasma, read-out: Cmax, mean): 35.9 ng/mL
- Vd/F (both sexes, plasma, oral, CYP2D6 IM, mild HI, N=2, single 100 mg eliglustat tartrate oral, plasma, read-out: Vz/F, mean): 3910 L
- Tmax (both sexes, plasma, oral, CYP2D6 IM, mild HI, N=2, single 100 mg eliglustat tartrate oral, plasma, read-out: tmax): 2 h
- AUC(0-inf) (both sexes, plasma, oral, CYP2D6 IM, moderate HI, N=1, single 100 mg eliglustat tartrate oral, plasma, read-out: AUC (extrapolated to infinity)): 208 ng·h/mL
- AUC(0-inf) (both sexes, plasma, po, CYP2D6 EM, healthy, N=7, single 100 mg eliglustat tartrate oral, plasma, read-out: AUC (extrapolated to infinity), geometric mean): 59.5 ng·h/mL
- AUC(0-inf) (both sexes, plasma, po, CYP2D6 EM, healthy, N=7, single 100 mg eliglustat tartrate oral, plasma, read-out: AUC (extrapolated to infinity), mean ± SD): 69 ± 49.1 ng·h/mL
- AUC(0-t) (both sexes, plasma, po, CYP2D6 EM, healthy, N=7, single 100 mg eliglustat tartrate oral, plasma, read-out: AUClast, geometric mean): 54.7 ng·h/mL
- AUC(0-t) (both sexes, plasma, po, CYP2D6 EM, healthy, N=7, single 100 mg eliglustat tartrate oral, plasma, read-out: AUClast, mean ± SD): 63.9 ± 47.1 ng·h/mL
- Cmax (both sexes, plasma, po, CYP2D6 EM, healthy, N=7, single 100 mg eliglustat tartrate oral, plasma, read-out: Cmax, geometric mean): 8.81 ng/mL
- Cmax (both sexes, plasma, po, CYP2D6 EM, healthy, N=7, single 100 mg eliglustat tartrate oral, plasma, read-out: Cmax, mean ± SD): 10.4 ± 7.4 ng/mL
- Vd/F (both sexes, plasma, po, CYP2D6 EM, healthy, N=7, single 100 mg eliglustat tartrate oral, plasma, read-out: Vz/F, geometric mean): 14400 L
- Vd/F (both sexes, plasma, po, CYP2D6 EM, healthy, N=7, single 100 mg eliglustat tartrate oral, plasma, read-out: Vz/F, mean ± SD): 16000 ± 6020 L
- Tmax (both sexes, plasma, po, CYP2D6 EM, healthy, N=7, single 100 mg eliglustat tartrate oral, plasma, read-out: tmax, median): 2.5 h
- AUC(0-inf) (both sexes, plasma, po, CYP2D6 EM, mild HI, N=6, single 100 mg eliglustat tartrate oral, plasma, read-out: AUC (extrapolated to infinity), geometric mean): 68.5 ng·h/mL
- AUC(0-inf) (both sexes, plasma, po, CYP2D6 EM, mild HI, N=6, single 100 mg eliglustat tartrate oral, plasma, read-out: AUC (extrapolated to infinity), mean ± SD): 172 ± 293 ng·h/mL
- AUC(0-t) (both sexes, plasma, po, CYP2D6 EM, mild HI, N=6, single 100 mg eliglustat tartrate oral, plasma, read-out: AUClast, geometric mean): 64.3 ng·h/mL
- AUC(0-t) (both sexes, plasma, po, CYP2D6 EM, mild HI, N=6, single 100 mg eliglustat tartrate oral, plasma, read-out: AUClast, mean ± SD): 166 ± 285 ng·h/mL
- Cmax (both sexes, plasma, po, CYP2D6 EM, mild HI, N=6, single 100 mg eliglustat tartrate oral, plasma, read-out: Cmax, geometric mean): 10.7 ng/mL
- Cmax (both sexes, plasma, po, CYP2D6 EM, mild HI, N=6, single 100 mg eliglustat tartrate oral, plasma, read-out: Cmax, mean ± SD): 22.4 ± 30.2 ng/mL
- Vd/F (both sexes, plasma, po, CYP2D6 EM, mild HI, N=6, single 100 mg eliglustat tartrate oral, plasma, read-out: Vz/F, geometric mean): 12700 L
- Vd/F (both sexes, plasma, po, CYP2D6 EM, mild HI, N=6, single 100 mg eliglustat tartrate oral, plasma, read-out: Vz/F, mean ± SD): 20000 ± 15600 L
- Tmax (both sexes, plasma, po, CYP2D6 EM, mild HI, N=6, single 100 mg eliglustat tartrate oral, plasma, read-out: tmax, median): 1.75 h
- AUC(0-inf) (both sexes, plasma, po, CYP2D6 EM, moderate HI, N=7, single 100 mg eliglustat tartrate oral, plasma, read-out: AUC (extrapolated to infinity), geometric mean): 307 ng·h/mL
- AUC(0-inf) (both sexes, plasma, po, CYP2D6 EM, moderate HI, N=7, single 100 mg eliglustat tartrate oral, plasma, read-out: AUC (extrapolated to infinity), mean ± SD): 575 ± 696 ng·h/mL
- AUC(0-t) (both sexes, plasma, po, CYP2D6 EM, moderate HI, N=7, single 100 mg eliglustat tartrate oral, plasma, read-out: AUClast, geometric mean): 293 ng·h/mL
- AUC(0-t) (both sexes, plasma, po, CYP2D6 EM, moderate HI, N=7, single 100 mg eliglustat tartrate oral, plasma, read-out: AUClast, mean ± SD): 536 ± 642 ng·h/mL
- Cmax (both sexes, plasma, po, CYP2D6 EM, moderate HI, N=7, single 100 mg eliglustat tartrate oral, plasma, read-out: Cmax, geometric mean): 24.8 ng/mL
- Cmax (both sexes, plasma, po, CYP2D6 EM, moderate HI, N=7, single 100 mg eliglustat tartrate oral, plasma, read-out: Cmax, mean ± SD): 39.5 ± 43.4 ng/mL
- Vd/F (both sexes, plasma, po, CYP2D6 EM, moderate HI, N=7, single 100 mg eliglustat tartrate oral, plasma, read-out: Vz/F, geometric mean): 4090 L
- Vd/F (both sexes, plasma, po, CYP2D6 EM, moderate HI, N=7, single 100 mg eliglustat tartrate oral, plasma, read-out: Vz/F, mean ± SD): 5840 ± 4130 L
- Tmax (both sexes, plasma, po, CYP2D6 EM, moderate HI, N=7, single 100 mg eliglustat tartrate oral, plasma, read-out: tmax, median): 4 h
- AUC(0-t) (plasma, oral, CYP2D6 IM, healthy, N=1, single 100 mg eliglustat tartrate oral, plasma, read-out: AUClast): 568 ng·h/mL
- Cmax (plasma, oral, CYP2D6 IM, healthy, N=1, single 100 mg eliglustat tartrate oral, plasma, read-out: Cmax): 75.9 ng/mL
- Vd/F (plasma, oral, CYP2D6 IM, healthy, N=1, single 100 mg eliglustat tartrate oral, plasma, read-out: Vz/F): 1790 L
- Tmax (plasma, oral, CYP2D6 IM, healthy, N=1, single 100 mg eliglustat tartrate oral, plasma, read-out: tmax): 2.5 h
- AUC(0-t) (plasma, oral, CYP2D6 IM, moderate HI, N=1, single 100 mg eliglustat tartrate oral, plasma, read-out: AUClast): 197 ng·h/mL
- Cmax (plasma, oral, CYP2D6 IM, moderate HI, N=1, single 100 mg eliglustat tartrate oral, plasma, read-out: Cmax): 35.6 ng/mL
- Vd/F (plasma, oral, CYP2D6 IM, moderate HI, N=1, single 100 mg eliglustat tartrate oral, plasma, read-out: Vz/F): 3430 L
- Tmax (plasma, oral, CYP2D6 IM, moderate HI, N=1, single 100 mg eliglustat tartrate oral, plasma, read-out: tmax): 1.52 h

— patent US10888544B2, “Methods for treating Gaucher disease” (Genzyme Corporation, priority 2017, dated 2021)
